Assay results: US10253002B2, “Compounds and methods of treating infections” (Neoculi Pty Ltd., priority 2013, dated 2019)
In brackets after ≈: the same amount, converted by molar mass. Several values for one entry are separate records, joined by “and”; a condition that tells them apart may be missing. Equal values may be shown once.

Assays:
S. pneumoniae isolates = experiment: Disk diffusion susceptibility (CLSI/EUCAST), Example 5; format: cell-based, Streptococcus pneumoniae
Protocol: Isolate susceptibility to 12 different antimicrobials (Table 16) was determined by CLSI and European Committee on Antimicrobial Susceptibility Testing (EUCAST) methods. Antimicrobials were selected based upon the CLSI and EUCAST guidelines. Standardised bacterial suspensions were spread onto MHSBA using a sterile cotton swab. Bacterial suspensions from of Streptococcus pneumoniae were standardised to an OD6O0 between 0.08 and 0.1 using a spectrophotometer and then diluted 1:20. Bacterial colonies were taken from an O/N horse blood agar plate. To ensure the purity of the 1:20 bacterial suspension, 50 μL was spread plated onto horse blood agar and incubated O/N at 37° C. with 5% CO2. The CFU was calculated and compared to the initial plate counts. Antibiotic disks (Purchased from Sigma Aldrich) were placed using a disk dispenser (Purchased from Oxoid) according to CLSI standards. MHSBA plates were incubated for 16 h-24 h at 37° C. in 5% CO2. Zones of complete inhibition were measured in triplicate to the nearest millimeter using a ruler on natural light-reflected growth, and the mode was represented as the diameter for each isolate. Pneumococcal isolates were categorised as sensitive, intermediate (I) or resistant (R) by CLSI standards and quality control (QC) ranges (Table 16).

MRSA = experiment: Broth microdilution MIC, Example 7 (NCL812 and analogues); format: cell-based, Staphylococcus aureus
Procedure, shortened: (§1)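 MICs in μg/ml were read as growth inhibition by eye, checked at 600 nm absorbance against drug-free wells, following CLSI broth microdilution. Strains: two MRSA, two VRE; duplicates, repeated once more when results diverged beyond one dilution step.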

VRE = experiment: as above; format: cell-based, Enterococcus spp.
Procedure, shortened: as §1

Escherichia coli = experiment: as above; format: cell-based; conditions: E. coli, 24 hours
Pseudomonas aeruginosa = experiment: as above; format: cell-based; conditions: P. aeruginosa, 24 hours
[1] = tested on: Staphylococcus pseudintermedius isolates (MSSP and MRSP); experiment: Disk diffusion and Epsilometer susceptibility testing, Example 6; format: cell-based
[2] = MRSA 1, 24 hours, duplicate lines per compound
[3] = MRSA 2, 24 hours, duplicate lines per compound
[4] = VRE 1, 24 hours, duplicate lines per compound
[5] = VRE 2, 24 hours, duplicate lines per compound

## CC[C@H]1OC(=O)[C@H](C)[C@@H](O[C@H]2C[C@@](C)(OC)[C@@H](O)[C@H](C)O2)[C@H](C)[C@@H](O[C@@H]2O[C@H](C)C[C@H](N(C)C)[C@H]2O)[C@](C)(OC)C[C@@H](C)C(=O)[C@H](C)[C@@H](O)[C@]1(C)O [Clarithromycin]
S. pneumoniae isolates; A66.1
  disk diffusion zone diameter: 30 mm
S. pneumoniae isolates; D39
  disk diffusion zone diameter: 32 mm
S. pneumoniae isolates; EF3030
  disk diffusion zone diameter: 32 mm
S. pneumoniae isolates; L82016
  disk diffusion zone diameter: 34 mm
S. pneumoniae isolates; P9
  disk diffusion zone diameter: 40 mm
S. pneumoniae isolates; P21
  disk diffusion zone diameter: 38 mm
S. pneumoniae isolates; TIGR4
  disk diffusion zone diameter: 35 mm
S. pneumoniae isolates; WCH16
  disk diffusion zone diameter: 33 mm
S. pneumoniae isolates; WCH43
  disk diffusion zone diameter: 28 mm
S. pneumoniae isolates; WCH46
  disk diffusion zone diameter: 39 mm
S. pneumoniae isolates; WCH57
  disk diffusion zone diameter: 39 mm
S. pneumoniae isolates; WCH77
  disk diffusion zone diameter: 37 mm
S. pneumoniae isolates; WCH86
  disk diffusion zone diameter: 36 mm
S. pneumoniae isolates; WCH89
  disk diffusion zone diameter: 31 mm
S. pneumoniae isolates; WCH92
  disk diffusion zone diameter: 27 mm
S. pneumoniae isolates; WCH137
  disk diffusion zone diameter: 33 mm
S. pneumoniae isolates; WCH158
  disk diffusion zone diameter: 38 mm
S. pneumoniae isolates; WCH184
  disk diffusion zone diameter: 10 mm
S. pneumoniae isolates; WCH184 (Table 18)
  disk diffusion susceptibility category: R
S. pneumoniae isolates; WCH211
  disk diffusion zone diameter: 33 mm
S. pneumoniae isolates; WU2
  disk diffusion zone diameter: 31 mm

## CC(O)Nc1cc(Cl)ccc1C=NNC(=N)NN=Cc1ccc(Cl)cc1NC(C)O.Cl (stereo not drawn) [NCL 168]
MRSA; [2]
  MIC (μg/ml) at 24 hours, MRSA 1: 32 µg/mL
MRSA; [3]
  MIC (μg/ml) at 24 hours, MRSA 2: 32 µg/mL
VRE; [4]
  MIC (μg/ml) at 24 hours, VRE 1: 64 µg/mL
VRE; [5]
  MIC (μg/ml) at 24 hours, VRE 2: 32 µg/mL
Escherichia coli; duplicate lines per compound
  MIC (μg/ml) at 24 hours, E. coli: >128 µg/mL
Pseudomonas aeruginosa; duplicate lines per compound
  MIC (μg/ml) at 24 hours, P. aeruginosa: >128 µg/mL

## N=C(NN=Cc1ccc(Cl)cc1N)NN=Cc1ccc(Cl)cc1N [NCL 169]
MRSA; [2]
  MIC (μg/ml) at 24 hours, MRSA 1: 32 µg/mL (≈ 87.9 µM)
MRSA; [3]
  MIC (μg/ml) at 24 hours, MRSA 2: 64 µg/mL (≈ 176 µM)
VRE; [4]
  MIC (μg/ml) at 24 hours, VRE 1: 32 µg/mL (≈ 87.9 µM)
VRE; [5]
  MIC (μg/ml) at 24 hours, VRE 2: 32 µg/mL (≈ 87.9 µM)
Escherichia coli; duplicate lines per compound
  MIC (μg/ml) at 24 hours, E. coli: >128 µg/mL
Pseudomonas aeruginosa; duplicate lines per compound
  MIC (μg/ml) at 24 hours, P. aeruginosa: >128 µg/mL

## CC(=O)Nc1cc(Cl)ccc1C=NNC(=N)NN=Cc1ccc(Cl)cc1NC(C)=O [NCL 170]
MRSA; [2]
  MIC (μg/ml) at 24 hours, MRSA 1: >128 µg/mL
MRSA; [3]
  MIC (μg/ml) at 24 hours, MRSA 2: >128 µg/mL
VRE; [4]
  MIC (μg/ml) at 24 hours, VRE 1: >128 µg/mL
VRE; [5]
  MIC (μg/ml) at 24 hours, VRE 2: >128 µg/mL
Escherichia coli; duplicate lines per compound
  MIC (μg/ml) at 24 hours, E. coli: >128 µg/mL
Pseudomonas aeruginosa; duplicate lines per compound
  MIC (μg/ml) at 24 hours, P. aeruginosa: >128 µg/mL

## CC(=NNC(=N)NN=C(C)c1ccccn1)c1ccccn1.Cl [NCL 172]
MRSA; MRSA 1, 24 hours
  MIC (μg/ml) at 24 hours, MRSA 1: 128 µg/mL
MRSA; MRSA 2, 24 hours
  MIC (μg/ml) at 24 hours, MRSA 2: 64 µg/mL
VRE; VRE 1, 24 hours
  MIC (μg/ml) at 24 hours, VRE 1: >128 µg/mL
VRE; VRE 2, 24 hours
  MIC (μg/ml) at 24 hours, VRE 2: >128 µg/mL
Escherichia coli
  MIC (μg/ml) at 24 hours, E. coli: >128 µg/mL
Pseudomonas aeruginosa
  MIC (μg/ml) at 24 hours, P. aeruginosa: >128 µg/mL

## CC(=NNC(=N)NN=C(C)c1ccc(Cl)cc1O)c1ccc(Cl)cc1O.Cl [NCL 173]
MRSA; MRSA 1, 24 hours
  MIC (μg/ml) at 24 hours, MRSA 1: 16 µg/mL
MRSA; MRSA 2, 24 hours
  MIC (μg/ml) at 24 hours, MRSA 2: 16 µg/mL
VRE; VRE 1, 24 hours
  MIC (μg/ml) at 24 hours, VRE 1: 4 µg/mL
VRE; VRE 2, 24 hours
  MIC (μg/ml) at 24 hours, VRE 2: 32 µg/mL
Escherichia coli
  MIC (μg/ml) at 24 hours, E. coli: >128 µg/mL
Pseudomonas aeruginosa
  MIC (μg/ml) at 24 hours, P. aeruginosa: >128 µg/mL

## Cl.N=C(NN=Cc1ccc(Cl)cc1O)NN=Cc1ccc(Cl)cc1O [NCL 174]
MRSA; MRSA 1, 24 hours
  MIC (μg/ml) at 24 hours, MRSA 1: 32 µg/mL
MRSA; MRSA 2, 24 hours
  MIC (μg/ml) at 24 hours, MRSA 2: 32 µg/mL
VRE; VRE 1, 24 hours
  MIC (μg/ml) at 24 hours, VRE 1: 4 µg/mL
VRE; VRE 2, 24 hours
  MIC (μg/ml) at 24 hours, VRE 2: 32 µg/mL
Escherichia coli
  MIC (μg/ml) at 24 hours, E. coli: >128 µg/mL
Pseudomonas aeruginosa
  MIC (μg/ml) at 24 hours, P. aeruginosa: >128 µg/mL

## Cl.N=C(N/N=C/c1ccc(Cl)nc1)N/N=C/c1ccc(Cl)nc1 [NCL 175]
MRSA; MRSA 1, 24 hours
  MIC (μg/ml) at 24 hours, MRSA 1: 64 µg/mL
MRSA; MRSA 2, 24 hours
  MIC (μg/ml) at 24 hours, MRSA 2: >128 µg/mL
VRE; VRE 1, 24 hours
  MIC (μg/ml) at 24 hours, VRE 1: 32 µg/mL
VRE; VRE 2, 24 hours
  MIC (μg/ml) at 24 hours, VRE 2: >128 µg/mL
Escherichia coli
  MIC (μg/ml) at 24 hours, E. coli: >128 µg/mL
Pseudomonas aeruginosa
  MIC (μg/ml) at 24 hours, P. aeruginosa: >128 µg/mL

## Cl.N=C(NN=Cc1cccnc1N)NN=Cc1cccnc1N [NCL 176]
MRSA; MRSA 1, 24 hours
  MIC (μg/ml) at 24 hours, MRSA 1: >128 µg/mL
MRSA; MRSA 2, 24 hours
  MIC (μg/ml) at 24 hours, MRSA 2: >128 µg/mL
VRE; VRE 1, 24 hours
  MIC (μg/ml) at 24 hours, VRE 1: >128 µg/mL
VRE; VRE 2, 24 hours
  MIC (μg/ml) at 24 hours, VRE 2: >128 µg/mL
Escherichia coli
  MIC (μg/ml) at 24 hours, E. coli: >128 µg/mL
Pseudomonas aeruginosa
  MIC (μg/ml) at 24 hours, P. aeruginosa: >128 µg/mL

## Cl.N=C(NN=C(CO)c1ccc(Cl)cc1)NN=C(CO)c1ccc(Cl)cc1 [NCL 177]
MRSA; MRSA 1, 24 hours
  MIC (μg/ml) at 24 hours, MRSA 1: 8 µg/mL
MRSA; MRSA 2, 24 hours
  MIC (μg/ml) at 24 hours, MRSA 2: 8 µg/mL
VRE; VRE 1, 24 hours
  MIC (μg/ml) at 24 hours, VRE 1: 4 µg/mL
VRE; VRE 2, 24 hours
  MIC (μg/ml) at 24 hours, VRE 2: 8 µg/mL
Escherichia coli
  MIC (μg/ml) at 24 hours, E. coli: >128 µg/mL
Pseudomonas aeruginosa
  MIC (μg/ml) at 24 hours, P. aeruginosa: >128 µg/mL

## CC1(C)S[C@@H]2[C@H](NC(=O)[C@H](N)c3ccc(O)cc3)C(=O)N2[C@H]1C(=O)O [amoxicillin]
[1]; 13 MRSP isolates
  MRSP isolates susceptible: 23%

## CO[C@@]1(NC(=O)Cc2cccs2)C(=O)N2C(C(=O)O)=C(COC(N)=O)CS[C@@H]21 [cefoxitin]
[1]; 13 MRSP, cefoxitin resistance break point set at ≤30 mm
  MRSP isolates susceptible: 7.7%
[1]; 13 MRSP, cefoxitin resistance breakpoint set at ≤24 mm
  MRSP isolates susceptible: 23% and 38%
[1]; isolate S1P1
  ZD: 0 mm
  ZD, Adl: 0 mm
[1]; isolate S2P2
  ZD: 21 mm
  ZD, Adl: 21 mm
[1]; isolate S3P3
  ZD: 21 mm
  ZD, Adl: 24 mm
[1]; isolate S4P4
  ZD: 29 mm
  ZD, Adl: 20 mm
[1]; isolate S5P5
  ZD: 26 mm
  ZD, Adl: 30 mm
[1]; isolate S6P6
  ZD: 22 mm
  ZD, Adl: 26 mm
[1]; isolate S7P7
  ZD: 21 mm
  ZD, Adl: 19 mm
[1]; isolate S8P8
  ZD: 21 mm
  ZD, Adl: 22 mm
[1]; isolate S9P9
  ZD: 23 mm
  ZD, Adl: 26 mm
[1]; isolate S10P10
  ZD: 21 mm
  ZD, Adl: 25 mm
[1]; isolate S11P11
  ZD: 22 mm
  ZD, Adl: 21 mm
[1]; isolate S12P12
  ZD: 24 mm
  ZD, Adl: 24 mm
[1]; isolate S13P13
  ZD: 36 mm
  ZD, Adl: 40 mm
[1]; isolate S14P14
  ZD: 34 mm
  ZD, Adl: 32 mm
[1]; isolate S15P15
  ZD: 33 mm
  ZD, Adl: 34 mm
[1]; isolate S16P16
  ZD: 38 mm
  ZD, Adl: 42 mm
[1]; isolate S17P17
  ZD: 36 mm
  ZD, Adl: 38 mm
[1]; isolate S18P18
  ZD: 25 mm
  ZD, Adl: 40 mm
[1]; isolate S19P19
  ZD: 36 mm
  ZD, Adl: 38 mm
[1]; isolate S20P20
  ZD: 38 mm
  ZD, Adl: 36 mm
[1]; isolate S21P21
  ZD: 36 mm
  ZD, Adl: 40 mm
[1]; isolate S22P22
  ZD: 34 mm
  ZD, Adl: 35 mm
[1]; isolate S23P23
  ZD: 29 mm
  ZD, Adl: 26 mm

## CC(=O)OCC1=C(C(=O)O)N2C(=O)[C@@H](NC(=O)Cc3cccs3)[C@H]2SC1 [cephalothin]
[1]; 13 MRSP isolates
  MRSP isolates susceptible: 62%

## COc1c(N2C[C@@H]3CCCN[C@@H]3C2)c(F)cc2c(=O)c(C(=O)O)cn(C3CC3)c12 [moxifloxacin]
[1]; 13 MRSP isolates
  MRSP isolates susceptible: 92%
